Assay results from PubChem BioAssay AID1963432 (Molecular Pharmacology Branch, DTP, NCI, 2024).

Tested on: SYO-1 complex spheroid growth, percent test/control
Experiment: Anticancer human tumor SYO-1 cell line growth inhibition [Asc];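 also: compound exposure lasted 7 days after spheroids grew 3 days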;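 as to viability, T/C: 100% = DMSO vehicle control viability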
Conditions: for IC50: curve of first compound; for viability, T/C: stronger effect = lower value
Method in brief: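 Spheroid model: tumor line + HUVEC + hMSC. Single agents and combinations; top conc. at/near clinical Cmax (10 microM if undetermined), half-log dilutions. DMSO stocks at 800-fold test concentration.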

[1] = second compound 0.01 µM, first compound 0.00316 µM
[2] = second compound 0.01 µM, first compound 0.01 µM
[3] = second compound 0.01 µM, first compound 0.0316 µM
[4] = second compound 0.01 µM, first compound 0.1 µM
[5] = second compound 0.0316 µM, first compound 0.00316 µM
[6] = second compound 0.0316 µM, first compound 0.01 µM
[7] = second compound 0.0316 µM, first compound 0.0316 µM
[8] = second compound 0.0316 µM, first compound 0.1 µM
[9] = second compound 0.1 µM, first compound 0.00316 µM
[10] = second compound 0.1 µM, first compound 0.01 µM
[11] = second compound 0.1 µM, first compound 0.0316 µM
[12] = second compound 0.1 µM, first compound 0.1 µM
[13] = second compound 0.316 µM, first compound 0.00316 µM
[14] = second compound 0.316 µM, first compound 0.01 µM
[15] = second compound 0.316 µM, first compound 0.0316 µM
[16] = second compound 0.316 µM, first compound 0.1 µM
[17] = second compound 1 µM, first compound 0.00316 µM
[18] = second compound 1 µM, first compound 0.01 µM
[19] = second compound 1 µM, first compound 0.0316 µM
[20] = second compound 1 µM, first compound 0.1 µM

Compound `CCN1CCN(Cc2ccc(Nc3ncc(F)c(-c4cc(F)c5nc(C)n(C(C)C)c5c4)n3)nc2)CC1` + CNC(C)C(=O)NC1CN(S(=O)(=O)c2cccc(S(=O)(=O)N3CCC4CCC(C(=O)NC(c5ccccc5)c5ccccc5)N4C(=O)C(NC(=O)C(C)NC)C3)c2)CCC2CCC(C(=O)NC(c3ccccc3)c3ccccc3)N2C1=O has an IC50 (second compound 0.01 µM) of over 1000 nM, an IC50 (second compound 0.0316 µM) of over 1000 nM and an IC50 (second compound 0.1 µM) of over 1000 nM. It also gave an IC50 (second compound 0.316 µM) of over 1000 nM, an IC50 (second compound 1 µM) of over 1000 nM and a viability, T/C [1] of 110%. It also gave a viability, T/C [2] of 114%, a viability, T/C [3] of 108% and a viability, T/C [4] of 111%. The viability, T/C (second compound 0.01 µM, first compound 0.316 µM) was 109%, the viability, T/C (second compound 0.01 µM, first compound 1 µM) was 116% and the viability, T/C [5] was 101%. It also gave a viability, T/C [6] of 101%, a viability, T/C [7] of 105% and a viability, T/C [8] of 110%. The viability, T/C (second compound 0.0316 µM, first compound 0.316 µM) was 112%, the viability, T/C (second compound 0.0316 µM, first compound 1 µM) was 114% and the viability, T/C [9] was 102%. It also gave a viability, T/C [10] of 101%, a viability, T/C [11] of 96.7% and a viability, T/C [12] of 106%. For the same compound, the viability, T/C (second compound 0.1 µM, first compound 0.316 µM) was 105%, the viability, T/C (second compound 0.1 µM, first compound 1 µM) was 108% and the viability, T/C [13] was 97.6%. It also gave a viability, T/C [14] of 103%, a viability, T/C [15] of 108% and a viability, T/C [16] of 100%. For the same compound, the viability, T/C (second compound 0.316 µM, first compound 0.316 µM) was 109%, the viability, T/C (second compound 0.316 µM, first compound 1 µM) was 115% and the viability, T/C [17] was 101%. It also gave a viability, T/C [18] of 101%, a viability, T/C [19] of 103% and a viability, T/C [20] of 110%. The viability, T/C (second compound 1 µM, first compound 0.316 µM) was 101% and the viability, T/C (second compound 1 µM, first compound 1 µM) was 101%.
`NC(=O)C(=Cn1cnc(-c2cc(C(F)(F)F)cc(C(F)(F)F)c2)n1)c1cncnc1` + CNC(C)C(=O)NC1CN(S(=O)(=O)c2cccc(S(=O)(=O)N3CCC4CCC(C(=O)NC(c5ccccc5)c5ccccc5)N4C(=O)C(NC(=O)C(C)NC)C3)c2)CCC2CCC(C(=O)NC(c3ccccc3)c3ccccc3)N2C1=O was tested, and the IC50 (second compound 0.01 µM) was 281 nM, the IC50 (second compound 0.0316 µM) was 290 nM and the IC50 (second compound 0.1 µM) was 260 nM. It also gave an IC50 (second compound 0.316 µM) of 238 nM, an IC50 (second compound 1 µM) of 199 nM and a viability, T/C (second compound 0.01 µM, first compound 0.000949 µM) of 102%. The viability, T/C (second compound 0.01 µM, first compound 0.003 µM) was 101%, the viability, T/C (second compound 0.01 µM, first compound 0.00949 µM) was 111% and the viability, T/C (second compound 0.01 µM, first compound 0.03 µM) was 104%. The viability, T/C (second compound 0.01 µM, first compound 0.0949 µM) was 98%, the viability, T/C (second compound 0.01 µM, first compound 0.3 µM) was 47.1% and the viability, T/C (second compound 0.0316 µM, first compound 0.000949 µM) was 99.2%. For the same compound, the viability, T/C (second compound 0.0316 µM, first compound 0.003 µM) was 105%, the viability, T/C (second compound 0.0316 µM, first compound 0.00949 µM) was 106% and the viability, T/C (second compound 0.0316 µM, first compound 0.03 µM) was 108%. The viability, T/C (second compound 0.0316 µM, first compound 0.0949 µM) was 102%, the viability, T/C (second compound 0.0316 µM, first compound 0.3 µM) was 48.4% and the viability, T/C (second compound 0.1 µM, first compound 0.000949 µM) was 109%. The viability, T/C (second compound 0.1 µM, first compound 0.003 µM) was 106%, the viability, T/C (second compound 0.1 µM, first compound 0.00949 µM) was 102% and the viability, T/C (second compound 0.1 µM, first compound 0.03 µM) was 97.6%. The viability, T/C (second compound 0.1 µM, first compound 0.0949 µM) was 102%, the viability, T/C (second compound 0.1 µM, first compound 0.3 µM) was 42.6% and the viability, T/C (second compound 0.316 µM, first compound 0.000949 µM) was 103%. The viability, T/C (second compound 0.316 µM, first compound 0.003 µM) was 110%, the viability, T/C (second compound 0.316 µM, first compound 0.00949 µM) was 111% and the viability, T/C (second compound 0.316 µM, first compound 0.03 µM) was 105%. For the same compound, the viability, T/C (second compound 0.316 µM, first compound 0.0949 µM) was 105%, the viability, T/C (second compound 0.316 µM, first compound 0.3 µM) was 36.3% and the viability, T/C (second compound 1 µM, first compound 0.000949 µM) was 114%. It also gave a viability, T/C (second compound 1 µM, first compound 0.003 µM) of 106%, a viability, T/C (second compound 1 µM, first compound 0.00949 µM) of 111% and a viability, T/C (second compound 1 µM, first compound 0.03 µM) of 105%. It also gave a viability, T/C (second compound 1 µM, first compound 0.0949 µM) of 97.5% and a viability, T/C (second compound 1 µM, first compound 0.3 µM) of 23.6%.
Work on `NC1CCC(NC2CC2c2ccccc2)CC1` (stereo not given) + CNC(C)C(=O)NC1CN(S(=O)(=O)c2cccc(S(=O)(=O)N3CCC4CCC(C(=O)NC(c5ccccc5)c5ccccc5)N4C(=O)C(NC(=O)C(C)NC)C3)c2)CCC2CCC(C(=O)NC(c3ccccc3)c3ccccc3)N2C1=O yielded an IC50 (second compound 0.01 µM) of over 100 nM, an IC50 (second compound 0.0316 µM) of over 100 nM and an IC50 (second compound 0.1 µM) of over 100 nM. It also gave an IC50 (second compound 0.316 µM) of over 100 nM, an IC50 (second compound 1 µM) of over 100 nM and a viability, T/C (second compound 0.01 µM, first compound 0.000316 µM) of 109%. The viability, T/C (second compound 0.01 µM, first compound 0.001 µM) was 104%, the viability, T/C [1] was 97.4% and the viability, T/C [2] was 89.4%. The viability, T/C [3] was 88.1%, the viability, T/C [4] was 86.2% and the viability, T/C (second compound 0.0316 µM, first compound 0.000316 µM) was 106%. It also gave a viability, T/C (second compound 0.0316 µM, first compound 0.001 µM) of 94%, a viability, T/C [5] of 89.7% and a viability, T/C [6] of 85.6%. It also gave a viability, T/C [7] of 87.5%, a viability, T/C [8] of 87.5% and a viability, T/C (second compound 0.1 µM, first compound 0.000316 µM) of 102%. For the same compound, the viability, T/C (second compound 0.1 µM, first compound 0.001 µM) was 92.5%, the viability, T/C [9] was 86.7% and the viability, T/C [10] was 91.3%. It also gave a viability, T/C [11] of 94.8%, a viability, T/C [12] of 91% and a viability, T/C (second compound 0.316 µM, first compound 0.000316 µM) of 99.8%. For the same compound, the viability, T/C (second compound 0.316 µM, first compound 0.001 µM) was 97.5%, the viability, T/C [13] was 90.5% and the viability, T/C [14] was 90.3%. It also gave a viability, T/C [15] of 86.6%, a viability, T/C [16] of 86.2% and a viability, T/C (second compound 1 µM, first compound 0.000316 µM) of 103%. The viability, T/C (second compound 1 µM, first compound 0.001 µM) was 99.1%, the viability, T/C [17] was 91.2% and the viability, T/C [18] was 89.6%. It also gave a viability, T/C [19] of 88.5% and a viability, T/C [20] of 86.4%.
